d = 2'-deoxy (DNA); m = 2'-O-methyl
Assays:
human HDAC-7 = assay: Antisense ODN screen, HDAC-7 RNA, T24 cells; type: cell-based; details: 100 nM, 24 hours, Northern blot
Experimental: Eighteen phosphorothioate ODNs containing sequences complementary to the 5′ or 3′ untranslated regions of the human HDAC-7 gene (GenBank Accession No. AF239243) were screened as above.
(§1) Briefly, human A549 and/or T24 human bladder carcinoma cells were seeded in 10 cm tissue culture dishes one day prior to oligonucleotide treatment. The cell lines were obtained from the American Type Culture Collection (ATCC) (Manassas, Va.) and were grown under the recommended culture conditions. Before the addition of the oligonucleotides, cells were washed with PBS (phosphate buffered saline). Next, lipofectin transfection reagent (GIBCO BRL Mississauga, Ontario, Calif.), at a concentration of 6.25 μg/ml, was added to serum free OPTIMEM medium (GIBCO BRL, Rockville, Md.), which was then added to the cells. The oligonucleotides to be screened were then added directly to the cells (i.e., one oligonucleotide per plate of cells). Mismatched oligonucleotides were used as controls. The same concentration of oligonucleotide (e.g., 50 nM) was used per plate of cells for each oligonucleotide tested.
(§2) Cells were harvested, and total RNAs were analyzed by Northern blot analysis. Briefly, total RNA was extracted using RNeasy miniprep columns (QIAGEN). Ten to twenty gg of total RNA was run on a formaldehyde-containing 1% agarose gel with 0.5 M sodium phosphate (pH 7.0) as the buffer system. […]

human HDAC-5 = assay: Antisense ODN screen, HDAC-5 RNA, T24 cells; type: cell-based; details: 100 nM, 24 hours, Northern blot
Experimental: Thirteen phosphorothioate ODNs containing sequences complementary to the 5′ or 3′ untranslated regions of the human HDAC-5 gene (GenBank Accession No. AF039691) were screened as above.
as §1, §2

T24 = assay: Apoptosis, Cell Death Detection ELISA; type: cell-based, human; details: fold over non-specific background, TSA at 100 ng/ml
Experimental: (§3) In order to determine the effect of HDAC OSDNs on cell growth and cell death through apoptosis, A549 or T24 cells, MDAmb231 cells, and HMEC cells (ATCC, Manassas, Va.) were treated with HDAC OSDNs as previously described.
(§4) For the apoptosis study, cells were analyzed using the Cell Death Detection ELISA ^PLUSkit (Roche Diagnostic GmBH, Mannheim, Germany) according to the manufacturer's directions. Typically, 10,000 cells were plated in 96-well tissue culture dishes for 2 hours before harvest and lysis. Each sample was analyzed in duplicate. ELISA reading was done using a MR700 plate reader (DYNEX Technology, Ashford, Middlesex, England) at 410 nm. The reference was set at 490 nm.

A549 = assay: Apoptosis, Cell Death Detection ELISA; type: cell-based, human; details: fold over non-specific background, TSA at 100 ng/ml
Experimental: as §3, §4

HMEC = assay: Apoptosis, Cell Death Detection ELISA; type: cell-based, human; details: fold over non-specific background, TSA at 100 ng/ml
Experimental: as §3, §4

cyclin B1 = assay: Western blot of cyclin B1 in A549 cells; type: cell-based, human; details: 48 hours
Experimental: (§5) Human cancer A549 cells were treated with AS1, AS2 or MM oligo directed human HDAC1 for 48 hours. Total cell lysates were harvested and analyzed by Western blot using antibodies against human HDAC1, cyclin Bl, cyclin A and actin (all from Santa Cruz Biotechnology, Inc., Santa Cruz, Calif.).

cyclin A = assay: Western blot of cyclin A in A549 cells; type: cell-based, human; details: 48 hours
Experimental: as §5

human HDAC-1 = assay: Antisense ODN screen, HDAC-1 RNA expression by Northern blot in T24 cells; type: cell-based; details: 100 nM, 24 hours
Experimental: as §1
Cells were harvested, and total RNAs were analyzed by Northern blot analysis. Briefly, total RNA was extracted using RNeasy miniprep columns (QIAGEN). Ten to twenty gg of total RNA was run on a formaldehyde-containing 1% agarose gel with 0.5 M sodium phosphate (pH 7.0) as the buffer system. RNAs were then transferred to nitrocellulose membranes and hybridized with the indicated radiolabeled DNA probes. Autoradiography was performed using conventional procedures.

human HDAC-4 = assay: Antisense ODN screen, HDAC-4 RNA, T24 cells; type: cell-based; details: 100 nM, 24 hours, Northern blot
Experimental: Seventeen phosphorothioate ODNs containing sequences complementary to the 5′ or 3′ UTR of the human HDAC-4 gene (GenBank Accession No. AB006626) were screened as above. […] HDAC-4 MM1 and MM2 oligonucleotides were created as controls; compared to the antisense oligonucleotides, they each contain a 6-base mismatch.
as §1
Cells were harvested, and total RNAs were analyzed by Northern blot analysis. Briefly, total RNA was extracted using RNeasy miniprep columns (QIAGEN). […]

MDAmb231 = assay: Apoptosis, Cell Death Detection ELISA; type: cell-based, human; details: fold over non-specific background, TSA at 100 ng/ml
Experimental: as §3, §4

[1] = system: murine erythroleukemia cells; details: Yoshida et al, Cancer Research 47: 3688-3691 (1987); cited from earlier work
mammalian HDAC = details: Yoshida et al., J. Biol. Chem 265: 17174-17179 (1990); cited from earlier work

| Compound | Apoptosis After 48 Hour Treatment (T24) | Apoptosis After 48 Hour Treatment (A549) | Apoptosis After 48 Hour Treatment (HMEC) | expression of cyclin B1 (cyclin B1) | expression of cyclin A (cyclin A) | antisense activity to human HDAC-1 (HDAC-1 RNA expression) (human HDAC-1) | other results |
| --- | --- | --- | --- | --- | --- | --- | --- |
| 5′-CTTCAGCCAGGATGCCCACA-3′ (sugars from the 5' end m4 d12 m4, all phosphorothioate, methylation of C and T or U not given here) [HDAC-7 AS] |  |  |  |  |  |  | antisense activity to human HDAC-7 (human HDAC-7): antisense activity |
| 5′-CTTCGGTCTCACCTGCTTGG-3′ (sugars from the 5' end m4 d12 m4, all phosphorothioate, methylation of C and T or U not given here) [HDAC-5 AS] |  |  |  |  |  |  | antisense activity to human HDAC-5 (human HDAC-5): antisense activity |
| 5′-GAAACGTGAGGGACTCAGCA-3′ (chemistry not given here) [HDAC-1 AS1] | − (“−”: <= 2x fold over non-specific background) | + (“+”: 2-3X fold) | − (“−”: <= 2x fold over non-specific background) | repress expression | repress expression | antisense activity |  |
| 5′-GGAAGCCAGAGCTGGAGAGG-3′ (chemistry not given here) [HDAC-1 AS2] |  |  |  | repress expression | repress expression | antisense activity |  |
| 5′-TACAGTCCATGCAACCTCCA-3′ [HDAC-4 AS2] |  |  |  |  |  |  | antisense activity to human HDAC-4 (human HDAC-4): antisense activity |
| CC(/C=C/C(=O)NO)=C\[C@@H](C)C(=O)c1ccc(N(C)C)cc1 [TSA, (R)-Trichostatin A, reference compound] | ++ (“++”: 3-5X fold) | ++ (“++”: 3-5X fold) | + (“+”: 2-3X fold) |  |  |  | Apoptosis After 48 Hour Treatment (MDAmb231): ++ (“++”: 3-5X fold); induction of differentiation in murine erythroleukemia cells [1]: potent inducer of differentiation; inhibition of mammalian HDAC (mammalian HDAC): potent inhibitor |

Reference: patent US20020137162A1, “Antisense oligonucleotide inhibition of specific histone deacetylase isoforms” (priority 2000, published 2002)
